The values that follow come from patent US20190030114A1, “ISOFORM-SPECIFIC CALPAIN INHIBITORS, METHODS OF IDENTIFICATION, AND USES THEREOF” (WESTERN UNIVERSITY OF HEALTH SCIENCES, priority 2014, published 2019).

Entries after “also recorded” stand apart in the source; their conditions may differ. Like-named read-outs stand apart in the source and are kept apart here. Residues, ends and D or L forms follow the SMILES beside them. *: point of attachment. Cbz = O=C(OCc1ccccc1)*; CH2F = FC*

Experiment [1] addresses T1, calpain-2 (Homo sapiens, UniProt P17655).
T1 sequence (P17655 1-700): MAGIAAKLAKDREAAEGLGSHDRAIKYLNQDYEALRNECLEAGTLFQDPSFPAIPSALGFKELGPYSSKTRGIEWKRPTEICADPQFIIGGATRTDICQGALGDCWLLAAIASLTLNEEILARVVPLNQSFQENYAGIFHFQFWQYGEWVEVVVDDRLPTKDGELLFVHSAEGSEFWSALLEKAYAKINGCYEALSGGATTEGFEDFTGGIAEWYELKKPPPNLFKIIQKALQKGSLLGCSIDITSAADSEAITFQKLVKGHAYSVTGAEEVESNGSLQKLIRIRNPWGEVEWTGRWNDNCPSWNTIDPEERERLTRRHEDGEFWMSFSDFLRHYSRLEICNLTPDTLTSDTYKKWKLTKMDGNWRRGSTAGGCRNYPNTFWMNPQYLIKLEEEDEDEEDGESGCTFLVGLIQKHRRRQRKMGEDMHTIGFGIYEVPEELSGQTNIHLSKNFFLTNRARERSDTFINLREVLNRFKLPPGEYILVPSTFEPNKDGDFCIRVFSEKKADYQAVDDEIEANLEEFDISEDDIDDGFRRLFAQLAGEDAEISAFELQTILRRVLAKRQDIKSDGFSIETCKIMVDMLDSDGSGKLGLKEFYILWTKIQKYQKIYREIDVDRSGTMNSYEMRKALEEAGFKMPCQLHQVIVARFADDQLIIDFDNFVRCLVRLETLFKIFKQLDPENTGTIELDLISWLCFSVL
T1 sequence (P04632 1-268 partner): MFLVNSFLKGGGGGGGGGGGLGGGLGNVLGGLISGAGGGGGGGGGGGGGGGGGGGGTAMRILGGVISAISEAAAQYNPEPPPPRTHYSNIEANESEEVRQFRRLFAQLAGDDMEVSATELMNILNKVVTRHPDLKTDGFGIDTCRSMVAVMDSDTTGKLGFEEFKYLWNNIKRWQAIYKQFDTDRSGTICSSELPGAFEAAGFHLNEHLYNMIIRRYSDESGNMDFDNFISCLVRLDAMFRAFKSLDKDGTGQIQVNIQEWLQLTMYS
As to conditions: cited from earlier work.

Experiment [2] addresses T2, calpain-1 (Homo sapiens, UniProt P07384).
T2 sequence (P07384 1-714): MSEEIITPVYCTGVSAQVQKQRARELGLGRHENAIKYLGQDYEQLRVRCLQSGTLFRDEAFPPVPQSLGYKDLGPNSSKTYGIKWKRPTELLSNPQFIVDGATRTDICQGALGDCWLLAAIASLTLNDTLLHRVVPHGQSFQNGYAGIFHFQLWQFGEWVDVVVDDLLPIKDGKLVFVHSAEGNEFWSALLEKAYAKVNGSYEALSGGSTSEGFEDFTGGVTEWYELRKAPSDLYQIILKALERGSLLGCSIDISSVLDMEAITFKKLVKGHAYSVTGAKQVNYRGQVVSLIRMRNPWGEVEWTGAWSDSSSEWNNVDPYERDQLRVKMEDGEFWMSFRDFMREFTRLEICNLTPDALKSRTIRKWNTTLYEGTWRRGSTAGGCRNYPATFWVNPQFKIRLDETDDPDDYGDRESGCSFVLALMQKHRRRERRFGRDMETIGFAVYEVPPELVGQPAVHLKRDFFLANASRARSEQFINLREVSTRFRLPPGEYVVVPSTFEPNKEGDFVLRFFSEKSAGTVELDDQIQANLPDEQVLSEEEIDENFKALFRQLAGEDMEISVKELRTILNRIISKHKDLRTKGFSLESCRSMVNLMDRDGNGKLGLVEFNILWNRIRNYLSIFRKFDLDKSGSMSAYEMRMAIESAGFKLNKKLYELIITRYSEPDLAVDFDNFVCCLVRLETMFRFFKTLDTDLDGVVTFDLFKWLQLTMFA
T2 sequence (P04632 1-268 partner): T1 sequence (P04632 1-268 partner)
As to conditions: cited from earlier work.

Experiment [3] deals with stratum radiatum of field CA1 in acute rat hippocampal slices. The experiment in a line: field EPSP recording, TBS-induced LTP in acute rat hippocampal slices. The class given is cell-based. As for the experimental part:
Results are expressed as percent of the average values over a 10 min baseline period and are means±S.E.M. of the indicated number of experiments.
FIG. 3A: Field recording of excitatory postsynaptic potentials (EPSPs) performed in stratum radiatum of field CA1 in acute rat hippocampal slices in the presence or absence of 200 nM of the calpain-2 selective inhibitor, Formula I, (mCalp-I in the drawing). Preincubation with mCalp-I enhances LTP. Results are expressed as percent of the average values over a 10 min baseline period and are means±S.E.M. of the indicated number of experiments.
Results are expressed as percent of the average values over the 10 min baseline period and are means±S.E.M. of the indicated number of experiments.
Generic calpain inhibitors block LTP when administered before LTP induction. Field recording of excitatory postsynaptic potentials (EPSPs; FIG. 2) was performed in stratum radiatum of field CA1 in acute rat hippocampal slices.
A calpain 2-selective inhibitor enhances LTP. […]

Experiment [4] relates to cultured cortical neurons. Description: Bic- and 4-AP-induced neuroprotection against starvation, Hoechst staining. The class given is cell-based. As to conditions: mCalp-I 200 nM. The source says: Neuronal death was observed and quantified by Hoechst staining. 300-500 neurons were counted for each group in three to 6 independent experiments. *p<0.05; ns, no significant difference; one-way ANOVA followed by Bonferroni test. n=3-6. Error Bar indicates SEM
Neuronal death was observed and quantified by Hoechst staining. 300-500 neurons were counted for each group in three to 6 independent experiments. *p<0.05; ns, no significant difference; one-way ANOVA followed by Bonferroni test. n=3-6. Error Bar indicates SEM (FIG. 6).

In the next experiment the test system is Akt and ERK. The experiment in a line: Akt and ERK phosphorylation in cultured cortical neurons, immunoblot. The format is cell-based. As to conditions: for Akt and ERK phosphorylation (pAkt/Akt, pERK/ERK): peptide 1.5 μM, 30 min. An excerpt:
Pre-treatment with Calpain-2 C-terminal peptide had no effect on Akt and ERK levels. Columns represent means±S.E.M. n=3-6. *p<0.05. One-way ANOVA followed by Bonferroni test.

In experiment [5] the target is T2, calpain-1. The experiment in a line: in vitro calpain-1 inhibition, succinic-Leu-Tyr-AMC substrate. The format is biochemical. As to conditions: n = 3-5; for Ki: Example 13, read-out: Ki Calpain-1. As for the experimental part:
(§1) Formula 1, where chiral center 1 is the L-form and chiral center 2 is a racemic mixture of D- and L- in this example was introduced at various concentrations (from 1 nM to 10 μM) into an in vitro mix comprising succinic-Leu-Tyr-AMC and calpain-1 or calpain-2 (Sasaki et al, 1984), and the kinetics of the loss of fluorescence were determined for each of the calpains (Powers et al, 2000). […] Therefore, the assessment of selectivity described herein was different than the prior teaching.
(§2) Formula 1A, where chiral center 1 is the S-form and chiral center 2 is the S-form was separated from the S-R-form (Formula 1B) using methods that are well-known methods for separating diastereoisomers. Formula 1A, which is also referred to herein as compound 18A, in this example was introduced at various concentrations into an in vitro mix comprising succinic-Leu-Tyr-AMC and μ-calpain or m-calpain (Sasaki et al, 1984), and the kinetics of the loss of fluorescence were determined for each of the calpains.

Experiment [6] has as its target T1, calpain-2. Description: in vitro calpain-2 inhibition, succinic-Leu-Tyr-AMC substrate. The format is biochemical. The conditions noted are these: for Ki: Example 13, read-out: Ki Calpain-2; for Ki / IC50: n = 3-4. As for the experimental part: as §1, §2
The subject of experiment [7] is cultured cortical neurons. The experiment in a line: neuroprotection against starvation and oxidative stress (H2O2). The class given is cell-based. As to conditions: 1.5 μM. The source says:
Columns represent means±S.E.M. n=4. *p<0.05; **p<0.01; ***p<0.001. One-way ANOVA followed by Bonferroni test.

A word on the Ki: it is the dissociation constant of the complex between target and ligand, obtained from inhibition or displacement. As for `CCCNC(=O)C(=O)C(Cc1ccccc1)NC(=O)C(CC(C)C)NC(=O)OCc1ccccc1` (stereo not drawn) [Formula XII, z-Leu-Phe-CONH-nPr], the Ki is 350 nM on calpain-2 [1] (Li et al, 1996, read-out: Ki for calpain-2 (m-calpain), literature); 50 nM on calpain-1 [2] (Li et al, 1996, read-out: Ki for calpain-1 (μ-calpain), literature); 15000 nM on calpain-1 [2] (U.S. Pat. No. 6,235,929, column 14, Table I, read-out: Ki for calpain-1).

Take `CC(C)C(NC(=O)OCc1ccccc1)C(=O)NC(C=O)Cc1ccccc1` (stereo not drawn) [Calpain inhibitor III, Z-Val-Phe-CHO, reference compound] (Cbz-Val-Phe-aldehyde; configuration not given here): the Ki at calpain-2 [1] (stated for generic inhibitor, source not given, read-out: Ki for calpain-2) is ~8 nM. In addition, in experiment [3] (10 μM added prior to TBS), the “LTP after theta-burst stimulation” value is recorded as “blocks LTP; also recorded: prevented the formation of LTP” and the “short-term potentiation (increase in fEPSPs that follows TBS)” value is on record as “did not block short-term potentiation”. Also, the “blocked Bic- and 4-AP-induced neuroprotection against starvation” value in experiment [4] is given as “blocked”. Further, the “effect of calpain-1 peptide on Akt and ERK” value in the experiment with Akt and ERK (pre-treatment 10 μM) was “blocks the effect of calpain-1 peptide on Akt and ERK”.

With `CC(C)C[C@H](NC(=O)OCc1ccccc1)C(=O)N[C@@H](CC(C)C)C(=O)N[C@@H](Cc1ccc(O)cc1)C(=O)CF` [Calpain inhibitor IV, carboxybenzyl-Leu-Leu-Tyr-CH2-F] (Cbz-Leu-Leu-Tyr-CH2F), the selectivity among calpains result on calpain-1 [2] (Powers et al, 2002, effect appears to vary with cell-type) is reported as “some selectivity for calpain-1”.

For orientation: IC50 means the concentration at which inhibition is half-maximal. Low values mean higher potency, high ones lower potency. Take `CC[C@@H](NC(=O)[C@H](CC(C)C)NC(=O)OCc1ccccc1)C(=O)C(=O)NCc1cc(OC)cc(OC)c1` [Formula 1B]: on calpain-1 [5], the inhibition constant (Ki) amounted to 514000 ± 151000 nM and half-maximal inhibition (IC50) was put at 569000 nM. Moreover, on calpain-2 [6], the “Ratio KiCalpain-1/KiCalpain-2” value was determined as 34, the Ki is 15600 ± 9200 nM and the IC50 stood at 19400 nM.

Take “Calpain-2 C-terminal peptide: calpain-2 PDZ-binding domain specific peptide: TIQLDLISWLSFSVL, or fragment or modification thereof”: the “Akt and ERK phosphorylation (pAkt/Akt, pERK/ERK)” value in the experiment with Akt and ERK is on record as “no effect”.

“Calpain-1 C-terminal peptide: calpain-1 PDZ-binding domain specific peptide: VTFDLFKWLQLTMFA, or fragment or modification thereof”: the “LTP in rat hippocampal slices on un-scaffolding calpain-1” value in experiment [3] (calpain-1 PDZ-peptide) was “greater LTP”. In addition, in experiment [7], the “neuroprotection against H2O2 insult” value was “neuroprotection against H2O2 insult” and the neuroprotection against starvation result is “neuroprotection against starvation”. Moreover, in the experiment with Akt and ERK, the “Akt and ERK phosphorylation (pAkt/Akt, pERK/ERK)” value was “increased Akt and ERK phosphorylation”.

Consider `CC[C@H](NC(=O)[C@H](CC(C)C)NC(=O)OCc1ccccc1)C(=O)C(=O)NCc1cc(OC)cc(OC)c1` [Formula 1A], for which, at calpain-1 [5], the Ki came to 181 ± 73 nM and the IC50 stood at 379 nM. Also, on calpain-2 [6], the “Ratio KiCalpain-1/KiCalpain-2” value was determined as 23.2, the Ki came to 7.8 ± 2.5 nM and the IC50 is 193 nM. Besides, the “difference in activity between the two diasteriomers, inhibition of calpain-2” value on calpain-2 [6] (Formula 1A versus S-R-form) is 2000 fold.
